Assays:
Test in all cases: relative viability (nuclei count vs DMSO), 5 days (fraction); higher = more cells survive
JZL-184 + Palbociclib = compound: C1CN(CCC1C(C2=CC3=C(C=C2)OCO3)(C4=CC5=C(C=C4)OCO5)O)C(=O)OC6=CC=C(C=C6)[N+](=O)[O-] [JZL-184] + CC(=O)c1c(C)c2cnc(Nc3ccc(N4CCNCC4)cn3)nc2n(C2CCCC2)c1=O [Palbociclib] (partner 0.5 µM)
Outline: (§1)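 Cells from lung cancer lines were seeded into 1536-well plates and, one day later, dosed by pin tool. Treatments were either a single drug or a fixed dose of an anchor drug with five library-drug doses (not always all listed) in √10 steps. After 5 days, nuclei were stained in a one-step fixation (final 0.05% Triton X-100, 1% formaldehyde, 1 ug/ml Hoechst) and counted on 4× images, and relative viability is the treated-to-vehicle nuclei ratio, as the median of duplicate plates.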

JZL-184 + Pemetrexed = compound: C1CN(CCC1C(C2=CC3=C(C=C2)OCO3)(C4=CC5=C(C=C4)OCO5)O)C(=O)OC6=CC=C(C=C6)[N+](=O)[O-] [JZL-184] + Nc1nc2[nH]cc(CCc3ccc(C(=O)N[C@@H](CCC(=O)O)C(=O)O)cc3)c2c(=O)[nH]1 [Pemetrexed] (partner 0.2 µM)
Outline: as §1

JZL-184 + Bortezomib = compound: C1CN(CCC1C(C2=CC3=C(C=C2)OCO3)(C4=CC5=C(C=C4)OCO5)O)C(=O)OC6=CC=C(C=C6)[N+](=O)[O-] [JZL-184] + CC(C)C[C@H](NC(=O)[C@H](Cc1ccccc1)NC(=O)c1cnccn1)B(O)O [Bortezomib] (partner 0.002 µM)
Outline: as §1

JZL-184 + OSI-027 = compound: C1CN(CCC1C(C2=CC3=C(C=C2)OCO3)(C4=CC5=C(C=C4)OCO5)O)C(=O)OC6=CC=C(C=C6)[N+](=O)[O-] [JZL-184] + COc1cccc2cc(-c3nc([C@H]4CC[C@H](C(=O)O)CC4)n4ncnc(N)c34)[nH]c12 [OSI-027] (partner 0.5 µM)
Outline: as §1

JZL-184 + Tozasertib = compound: C1CN(CCC1C(C2=CC3=C(C=C2)OCO3)(C4=CC5=C(C=C4)OCO5)O)C(=O)OC6=CC=C(C=C6)[N+](=O)[O-] [JZL-184] + Cc1cc(Nc2cc(N3CCN(C)CC3)nc(Sc3ccc(NC(=O)C4CC4)cc3)n2)n[nH]1 [Tozasertib] (partner 0.1 µM)
Outline: as §1

Cell Line | relative viability (JZL-184 + Palbociclib; first compound 0.04 µM) | relative viability (JZL-184 + Palbociclib; first compound 0.4 µM) | relative viability (JZL-184 + Palbociclib; first compound 1.265 µM) | relative viability (JZL-184 + Palbociclib; first compound 4 µM) | relative viability (JZL-184 + Pemetrexed; first compound 0.04 µM) | relative viability (JZL-184 + Pemetrexed; first compound 0.4 µM) | relative viability (JZL-184 + Pemetrexed; first compound 1.265 µM) | relative viability (JZL-184 + Pemetrexed; first compound 4 µM) | relative viability (JZL-184 + Bortezomib; first compound 0.04 µM) | relative viability (JZL-184 + Bortezomib; first compound 0.4 µM) | relative viability (JZL-184 + Bortezomib; first compound 1.265 µM) | relative viability (JZL-184 + Bortezomib; first compound 4 µM) | relative viability (JZL-184 + OSI-027; first compound 0.04 µM) | relative viability (JZL-184 + OSI-027; first compound 0.4 µM) | relative viability (JZL-184 + OSI-027; first compound 1.265 µM) | relative viability (JZL-184 + OSI-027; first compound 4 µM) | relative viability (JZL-184 + Tozasertib; first compound 0.04 µM) | relative viability (JZL-184 + Tozasertib; first compound 0.4 µM) | relative viability (JZL-184 + Tozasertib; first compound 1.265 µM) | relative viability (JZL-184 + Tozasertib; first compound 4 µM)
NCI-H2228 | 0.947 | 0.511 | 0.842 | 0.768 | 0.397 | 0.336 | 0.38 | 0.337 | 1.1 | 1.01 | 0.995 | 0.835 | 0.643 | 0.51 | 0.613 | 0.632 | 0.327 | 0.299 | 0.282 | 0.271
NCI-H1975 | 0.679 | 0.579 | 0.614 | 0.575 | 0.307 | 0.281 | 0.296 | 0.263 | 0.361 | 0.419 | 0.358 | 0.336 | 0.842 | 0.759 | 0.764 | 0.654 | 0.757 | 0.686 | 0.869 | 0.634
NCI-H647 | 0.369 | 0.285 | 0.407 | 0.359 | 0.201 | 0.161 | 0.209 | 0.19 | 1.32 | 0.922 | 1.14 | 0.974 | 0.625 | 0.698 | 0.75 | 0.51 | 0.388 | 0.425 | 0.46 | 0.252
A-427 | 0.588 | 0.515 | 0.518 | 0.536 | 1.03 | 0.971 | 1.06 | 0.886 | 1.05 | 0.965 | 1 | 0.918 | 0.469 | 0.435 | 0.479 | 0.474 | 0.194 | 0.186 | 0.264 | 0.239
LXF-289 | 0.693 | 0.564 | 0.572 | 0.595 | 0.882 | 0.779 | 0.862 | 0.875 | 1.01 | 0.953 | 1.04 | 0.933 | 0.819 | 0.776 | 0.927 | 0.734 | 0.221 | 0.206 | 0.198 | 0.22
NCI-H1437 | 0.333 | 0.321 | 0.297 | 0.282 | 0.306 | 0.322 | 0.309 | 0.312 | 0.594 | 0.512 | 0.479 | 0.373 | 0.88 | 0.849 | 0.849 | 0.866 | 0.395 | 0.398 | 0.397 | 0.402
RERF-LC-KJ | 1.17 | 1.14 | 1.17 | 0.982 | 0.496 | 0.463 | 0.468 | 0.44 | 1.15 | 0.96 | 1.11 | 1.04 | 0.58 | 0.625 | 0.562 | 0.478 | 0.499 | 0.37 | 0.453 | 0.436
HCC-44 | 0.965 | 0.967 | 1.03 | 0.981 | 0.708 | 0.621 | 0.688 | 0.64 | 0.8 | 0.878 | 0.836 | 0.856 | 0.628 | 0.366 | 0.689 | 0.471 | 1.27 | 0.805 | 1.26 | 0.983
EPLC-272H | 0.331 | 0.314 | 0.326 | 0.297 | 0.316 | 0.22 | 0.351 | 0.319 | 1.03 | 0.735 | 1.06 | 0.839 | 0.311 | 0.259 | 0.35 | 0.351 | 0.59 | 0.277 | 0.31 | 0.198
NCI-H322M | 0.483 | 0.449 | 0.509 | 0.451 | 0.591 | 0.604 | 0.615 | 0.538 | 1.15 | 1.16 | 1.27 | 1.27 | 0.555 | 0.488 | 0.55 | 0.52 | 0.441 | 0.444 | 0.49 | 0.401

Reference: the supplement of paper PMC10307832
